Data on one molecule can be found in patent US20220304348A1, “TRITERPENE GLUCURONIDES AND THEIR USE AS FLAVOR MODIFIERS” (Firmenich SA, priority 2019, published 2022).

This test is described as follows: Sweetness enhancement taste panel (sweetness and licorice taste ratings of 5% sucrose solutions). The format is in vivo, human. The settings on record: taste panel rating on a scale from 0 to 10; compound at 50 ppm in 5% sucrose solution in Henniez water; no flavor modifier = 5.0. As for the experimental part:
A test compounds were tested for its sweetness enhancement of a 5% (w/w) aqueous solution of sucrose. Taste panelists were asked to taste the following 5% sucrose solutions in Henniez water and rate their sweetness on a scale from 0 to 10, and to rate the presence of any licorice taste in the sample on a scale from 0 to 10.

Regarding `CC1(C)[C@@H](O[C@@H]2O[C@H](C(=O)O)[C@@H](O)[C@H](O)[C@H]2O)CC[C@]2(C)[C@H]3C(=O)C=C4[C@@H]5C[C@@](C)(C(=O)O)CC[C@]5(C)CC[C@@]4(C)[C@]3(C)CC[C@@H]12` [Compound 108, β-Glycyrrhizin Monoglucuronate], the “Sweetness (0-10)” value is given as 5.8.
